The values that follow come from patent publication US20100204135A1, “USE OF LVV-HEMORPHIN-6 AND OPTIONALLY AF12198 AS THERAPEUTIC AGENT(S)” (priority 2007, published 2010).

Where no end group is shown, it is not given here.

Experiment [1] relates to Tumor Necrosis Factor-a (TNF-a). The experiment can be described thus: Th1/Th2 cytokine profiling assay, TNF-alpha. Type of experiment: cell-based, mouse. To be noted: 10 micrograms per ml; Ovalbumin-restimulated Balb/c spleen cells, 72 hours.
Method: (§1) The Balb/c mice (originated in 1923, it is a popular strain and is used in many different research disciplines. Also classified as an inbred from the production of 20 size) were immunized on Days 1, 15, and 29 with Ovalbumin (Ovalbumin is the main protein found in egg white, commonly used to stimulate an immunological reaction in test animals) in PBS (5 micrograms/injection). On day 50, spleens of the mice were harvested (3 weeks after last boost with Ovalbumin). Cells were cultured (2×10^5/well in triplicate) and incubated with culture medium or test peptides—10 micrograms per ml—for 30 min. Thereafter, additional Ovalbumin was added to the cells at 10 micrograms/ml for in vitro restimulation of the cells. 72 hours later, cell supernatants were harvested and assayed using the Becton Dickinson Mouse Th1/Th2 Cytokine CBA Kit. This kit can be used to measure Interleukin-2 (IL-2), Interleukin-4 (IL-4), Interleukin-5 (IL-5), Interferon-γ (IFN-γ), and Tumor Necrosis Factor-a (TNF-a) protein levels in a single sample. The kit performance has been optimized for analysis of physiologically relevant concentrations (μg/ml levels) of specific cytokine proteins in tissue culture supernatants and serum samples.
A further experiment deals with Interferon-γ (IFN-γ). The experiment can be described thus: Th1/Th2 cytokine profiling assay, IFN-γ. It is filed as cell-based, mouse. To be noted: 10 micrograms per ml; Ovalbumin-restimulated Balb/c spleen cells, 72 hours.
For a further experiment, the system named is Interleukin-5 (IL-5). The experiment can be described thus: Th1/Th2 cytokine profiling assay, IL-5. It is filed as cell-based, mouse. To be noted: 10 micrograms per ml; Ovalbumin-restimulated Balb/c spleen cells, 72 hours.
The subject of another experiment is HCMV strain AD169. The experiment can be described thus: HCMV plaque formation assay in MRC-5 cells. It is filed as cell-based. To be noted: for inhibition of HCMV plaque formation as compared to the virus control experiment: 10 micrograms per ml, 7-10 days.
A further experiment has as its system HUVEC. The experiment can be described thus: Endothelial tube formation assay. Type of experiment: cell-based, human. To be noted: 10 micrograms per ml, 20 hours. An excerpt: Positive control was vehicle only.
The subject of another experiment is Interleukin-2 (IL-2). The experiment can be described thus: Th1/Th2 cytokine profiling assay, IL-2. It is filed as cell-based, mouse. To be noted: 10 micrograms per ml; Ovalbumin-restimulated Balb/c spleen cells, 72 hours.
The next experiment concerns Interleukin-4 (IL-4). The experiment can be described thus: Th1/Th2 cytokine profiling assay, IL-4. It is filed as cell-based, mouse. To be noted: 10 micrograms per ml; Ovalbumin-restimulated Balb/c spleen cells, 72 hours.
The subject of experiment [2] is hepatitis B virus (HBV) ayw strain. The experiment can be described thus: HBV experimental assay system, HepG2-2.2.15, TaqMan PCR of secreted HBV DNA. Type of experiment: cell-based. To be noted: 10 micrograms per ml; HepG2-2.2.15, six days, HBV DNA in supernatant.
The next experiment deals with Human A549 cells. The experiment can be described thus: Apoptosis prevention assay (Annexin-5, C2 ceramide). Type of experiment: cell-based. To be noted: 10 micrograms per ml; A549 pretreated 30 min, then C2 ceramide.
The test system of experiment [3] is Primary Human endothelial cells (HUVEC). The experiment can be described thus: Endothelial cell migration assay. Type of experiment: cell-based. To be noted: 10 micrograms per ml, 22 hours. As to the method:
Thereafter, designated concentration of testing peptides—10 micrograms per ml—was added in duplicate wells.

Method for Interferon-γ (IFN-γ): as §1
Method for Interleukin-2 (IL-2): as §1
Method for Interleukin-4 (IL-4): as §1
Method for Interleukin-5 (IL-5): as §1

With “Phe-Glu-Trp-Thr-Pro-Gly-Tyr-Trp-Gln-Pro-Tyr-Ala-Leu-Pro-Leu-OH (FEWTPGYWQPYALPL-OH) [Peptide 2]”, the “change of the production of TNF-alpha in murine spleen cells” value in experiment [1] is listed as “did not significantly change”. The “decrease of the production of IFN-γ in murine spleen cells” value with Interferon-γ (IFN-γ) was 37.5%. In the experiment on Interleukin-5 (IL-5), the “decrease of the production of IL-5 in murine spleen cells” value turned out to be 38.8%. The “inhibition of HCMV plaque formation as compared to the virus control experiment” value in the experiment with HCMV strain AD169 is “did not inhibit”. In the experiment with HUVEC, the “increase of the tube formation of human endothelial cells” value was found to be 4%. Further, the “increase of the production of IL-2 in murine spleen cells” value with Interleukin-2 (IL-2) was 68.1%. Further, the “change of the production of IL-4 in murine spleen cells” value in the experiment on Interleukin-4 (IL-4) is on record as “did not significantly change”. In addition, in experiment [2], the “inhibition of HBV replication as compared to the virus control infection” value amounted to 26.3%. Besides, the “effect on the ceramide-induced apoptosis on human lung cells” value in the experiment on Human A549 cells was determined as 28.6%.

As for `Nc1nc(O)c2ncn(COC(CO)CO)c2n1` [Ganciclovir, reference compound], in the experiment on HCMV strain AD169 (positive control, HCMV AD169), the “antiviral activity of positive control compound” value is “expected levels of antiviral activity”.

Consider “Leu-Val-Val-Tyr-Pro-Trp-Thr-Gln-Arg-OH (LVVYPWTQR-OH) [Peptide 1]”, for which, in experiment [1], the “change of the production of TNF-alpha in murine spleen cells” value was “did not significantly change”. In the experiment on Interferon-γ (IFN-γ), the “decrease of the production of IFN-γ in murine spleen cells” value is “did not significantly change”. In addition, the “decrease of the production of IL-5 in murine spleen cells” value in the experiment on Interleukin-5 (IL-5) is reported as 33%. Moreover, the “inhibition of HCMV plaque formation as compared to the virus control experiment” value in the experiment with HCMV strain AD169 is recorded as “did not inhibit”. Also, the “increase of the tube formation of human endothelial cells” value in the experiment on HUVEC was found to be 2%. In addition, the “increase of the production of IL-2 in murine spleen cells” value in the experiment with Interleukin-2 (IL-2) turned out to be 54.3%. Besides, the “change of the production of IL-4 in murine spleen cells” value in the experiment on Interleukin-4 (IL-4) is on record as “did not significantly change”. Also, in experiment [3], the “inhibition of the migration of human endothelial cells” value was 4%. Also, in [2], the “inhibition of HBV replication as compared to the virus control infection” value stood at 24.3%. In the experiment on Human A549 cells, the “effect on the ceramide-induced apoptosis on human lung cells” value is “did not reduce”.
